Patent US6946447B2, “MDM2-specific antisense oligonucleotides” (Hybridon, Inc., priority 1997, dated 2005)
Like-named read-outs stand apart in the source and are kept apart here.

Legend:
[1] = test system: human colon cancer DLD-1 xenografts; test: Tumor growth in nude mice bearing DLD-1 xenografts; assay type: in vivo
JAR xenografts = test: Tumor regression and survival of nude mice bearing large JAR xenografts, intratumoral injection; conditions: JAR xenografts (average 2,000 mg)
Procedure: Administration was by direct injection into the tupors at the designated daily dose, 5 doses/week. Anti-MDM2 oligonucleotide: AS5-2H (5 mg/kg/day, 5 injections); anti-MDM2 oligonucleotide (5 mg/kg)+HCPT (3 mg/kg); control (saline); HCPT: 3 mg/kg/day.
The tumor cell lines, SJSA and JAR, were cultured under the same conditions as in in vitro studies (Chen et al., PNAS 1998, supra). Human cancer xenograft models were established using the methods reported previously (Cai et al., Intl. J. Oncol. 10:953-960, 1997; and Zhang et al., Intl. J. Oncol. 10:1147-1156, 1997). Female nude mice (five week old) were used in the study. Cultured SJSA and JAR cells were harvested from the monolayer cultures, washed twice with DMEMF-12 HAM medium, resuspended in DMEM, and injected s.c. (20×10^6 cells, total volume 0.2 ml) into the left inguinal area of the mice. The animals were monitored by general clinical observation, body weight, and tumor growth. […] Animals with JAR cells were treated when the tumor size reached 2,000 mg. The animals bearing human cancer carcinoma xenografts were randomly divided into treatment groups and a control group (6-10 mice/group). Oligonucleotides dissolved in physiological saline (0.9% NaCl) were administered by ip injection at various daily doses, 5 consecutive days per week. The control group received physiological saline only. […]

MDM2 = conditions: SJSA and JAR cells; cited from earlier work
[2] = mice bearing DLD-1 xenografts
[3] = test system: MDM2, p53 and p21 protein levels in DLD-1 cells; test: Western blot of MDM2, p53 and p21 in DLD-1 cells; assay type: cell-based, human; conditions: for inhibitory effect on MDM2 expression: Lipofectin
From the text: (§1) Chemicals and Reagents. Cell culture media and phosphate-buffered saline (PBS) were obtained from Sigma Chemical Co. (St. Louis, Mo.). Fetal bovine serum (FBS), antibodies against p53 and p21, Lipofectin, trypsin, penicillin-streptomycin, and trypan blue stain were purchased from GIBCO-BRL (Grand Island, N.Y.). The anti-human-MDM2 monoclonal antibody (Chen L. et al., Proc Natl Acad Sci USA, 95: 195-200, 1998; Chen L. et al., Mol. Med. 5: 21-34, 1999) was kindly provided by J. Chen (Moffitt Cancer Center, Tampa, Fla.). Chemotherapeutic agents adriamycin and 5-fluorouracil (5-FU) were obtained from Sigma. Natural product topoisomerase I inhibitor 10-hydroxycamptothecin (HCPT) was obtained from the Midwest Co. (Beijing, China) with the purity of the drug being greater than 98% (Zhang R. et al., Cancer Chemother Pharm 41: 257-267, 1998). Cell Culture. The tumor cell lines, LS174T and DLD-1 were obtained from the American Type Culture Collection (Rockville, Md.) and cultured according to their instructions. LS 174T cells were cultured in MEM with 0.1 mM nonessential amino acids and Earle's balanced salt solution containing 10% FBS and DLD-1 cells in RPMI 1640 medium containing 10% FBS. All media included 1% penicillin/streptomycin. […] Cells were incubated with Oligos AS or ASM at various concentrations for 72 hr, in the presence of Lipofectin (7 μg/ml). […] Western Blot Analysis. The MDM2, p53 and p21 levels in cultured cells were analyzed by using the methods described previously (earlier (Chen L. et al., Proc Natl Acad Sci USA, 95: 195-200, 1998; Chen L. et al., Mol. Med. 5: 21-34, 1999; Wang H. et al., Int J. Oncol. 15: 653-660, 1999). In brief, cell lysate containing identical amounts of total protein were fractionated by SDS-PAGE and transferred to Bio-Rad Trans-Blot nitrocellulose membranes (Bio-Rad Laboratories, Hercules, Calif., USA). The nitrocellulose membrane was then incubated with blocking buffer (PBS containing 0.1% Tween 20 and 5% non-fat milk) for 1 hr at room temperature and washed with the washing buffer (PBS containing 0. 1% Tween 20) for 5 min twice. The membrane was incubated with primary (anti-MDM2, anti-p53, or anti-p21) antibody overnight at 4° C. or for 1 hr at room temperature with gentle shaking. The membrane was washed with the washing buffer for 15 min and then twice for 5 min, and then incubated with 1:5000 diluted goat anti-mouse IgG-horse radish peroxidase conjugated antibody (Bio-Rad, Hercules, Calif.) for 1 hr at room temperature. After washing as described above the protein of interest was detected by ECL reagents from Amersham (Arlington Height, Ill.). Results. LS174T Model. In vitro inhibition of MDM2 expression by Oligo AS was shown in a sequence-specific, increasing dose-dependent manner (FIG. 19). […] Control oligonucleotide, Oligo ASM had no effect on MDM2, p53 or p21 protein levels at 500 nM, the highest concentration tested in the study.
(§2) Following in vitro combination treatment of Oligos and chemotherapeutic agents HCPT, adriamycin, and 5-FU, the protein levels of MDM2, p53 and p21 were determined in DLD-1 cells. Cells were incubated with 200 nM Oligo in the presence of Lipofectin for 24 hr, followed by addition of various concentrations of chemotherapeutic agents and incubation for an additional 24 hr.

[4] = mice bearing LS174T xenografts
[5] = test system: MDM2, p53 and p21 protein levels in LS174T cells; test: Western blot of MDM2, p53 and p21 in LS174T cells; assay type: cell-based, human; conditions: 400 nM Oligo 24 hr
From the text: as §1
as §2, with “LS174T” for “DLD-1”, “400” for “200”, “for” for “for an”

DLD-1 cells = test: DLD-1 cell growth by trypan blue viability staining; assay type: cell-based, human; conditions: 72-hr treatment, Lipofectin, read-out: IC50, inhibition of tumor cell growth
From the text: Chemicals and Reagents. Cell culture media and phosphate-buffered saline (PBS) were obtained from Sigma Chemical Co. (St. Louis, Mo.). Fetal bovine serum (FBS), antibodies against p53 and p21, Lipofectin, trypsin, penicillin-streptomycin, and trypan blue stain were purchased from GIBCO-BRL (Grand Island, N.Y.). The anti-human-MDM2 monoclonal antibody (Chen L. et al., Proc Natl Acad Sci USA, 95: 195-200, 1998; Chen L. et al., Mol. Med. 5: 21-34, 1999) was kindly provided by J. Chen (Moffitt Cancer Center, Tampa, Fla.). Chemotherapeutic agents adriamycin and 5-fluorouracil (5-FU) were obtained from Sigma. […] The MDM2, p53 and p21 levels in cultured cells were analyzed by using the methods described previously (earlier (Chen L. et al., Proc Natl Acad Sci USA, 95: 195-200, 1998; Chen L. et al., Mol. Med. 5: 21-34, 1999; Wang H. et al., Int J. Oncol. 15: 653-660, 1999). In brief, cell lysate containing identical amounts of total protein were fractionated by SDS-PAGE and transferred to Bio-Rad Trans-Blot nitrocellulose membranes (Bio-Rad Laboratories, Hercules, Calif., USA). The nitrocellulose membrane was then incubated with blocking buffer (PBS containing 0.1% Tween 20 and 5% non-fat milk) for 1 hr at room temperature and washed with the washing buffer (PBS containing 0. […]

SJSA xenografts = test: Tumor growth in nude mice bearing SJSA xenografts; assay type: in vivo; conditions: SJSA xenografts (average 150 mg), ip, 5 doses/week
Procedure: 51:173-182, 1996). […] The control group received physiological saline only.
Tumor growth was monitored using the methods previously reported (74,75). Tumor weight (g) was calculated by the formula, ½·a·b^2, where “a” is the long diameter (cm) and “b” is the short diameter (cm) of the tumor. At the end of the experiment, tumors were removed, weighed, and then fixed for pathology evaluation.

Substance: Oligo AS: 20-mer mixed-backbone phosphorothioate oligonucleotide with 2′-O-methyl ends, 5′UGACACCTGTTCTCACUCAC-3′; SEQ ID NO:47 (mixed phosphorothioate backbone with 2'-O-methyl ends, pattern not given here)
- xenograft pathology (tumor histology) [1]: histologically similar to control tumors except for modest increases in connective tissue with necrotic changes in tumor tissues
- effect on in vivo tumor growth ([1]; 1 mg/kg/day): minimal effects
- effect on in vivo tumor growth ([1]; daily ip doses 1, 10, 20 mg/kg): dose-dependent response
- Ratio (%) of % T:C with oligo to % T:C without oligo ([2]/[1] or [3]/[1]) ([1]; day 3): 77%
- Growth ratio % T:C ([1]; day 3, oligo 20, HCPT 3, 5-FU 10 mg/kg/day): 77.3%
- Ratio (%) of % T:C with oligo to % T:C without oligo ([2]/[1] or [3]/[1]) ([1]; day 6): 72%
- Growth ratio % T:C ([1]; day 6, oligo 20, HCPT 3, 5-FU 10 mg/kg/day): 72.0%
- Ratio (%) of % T:C with oligo to % T:C without oligo ([2]/[1] or [3]/[1]) ([1]; day 9): 59%
- Growth ratio % T:C ([1]; day 9, oligo 20, HCPT 3, 5-FU 10 mg/kg/day): 59.2%
- Ratio (%) of % T:C with oligo to % T:C without oligo ([2]/[1] or [3]/[1]) ([1]; day 12): 41%
- Growth ratio % T:C ([1]; day 12, oligo 20, HCPT 3, 5-FU 10 mg/kg/day): 41.2%
- Ratio (%) of % T:C with oligo to % T:C without oligo ([2]/[1] or [3]/[1]) ([1]; day 15): 44%
- Growth ratio % T:C ([1]; day 15, oligo 20, HCPT 3, 5-FU 10 mg/kg/day): 44.4%
- Ratio (%) of % T:C with oligo to % T:C without oligo ([2]/[1] or [3]/[1]) ([1]; day 18): 47%
- Growth ratio % T:C ([1]; day 18, oligo 20, HCPT 3, 5-FU 10 mg/kg/day): 46.7%
- Ratio (%) of % T:C with oligo to % T:C without oligo ([2]/[1] or [3]/[1]) ([1]; day 21): 37%
- Growth ratio % T:C ([1]; day 21 (end of experiment), oligo 20, HCPT 3, 5-FU 10 mg/kg/day): 36.8%
- tumor regression (JAR xenografts; direct injection): tumor regression
- animals surviving up to 4 weeks (JAR xenografts; direct injection into tumors, 5 mg/kg/day): 20%
- MDM2 expression (MDM2): specifically inhibits MDM2 expression
- Survival Rates of Animals ([2]; day 3): 100%
- Survival Rates of Animals ([2]; day 6): 100%
- Survival Rates of Animals ([2]; day 9): 100%
- Survival Rates of Animals ([2]; day 12): 100%
- Survival Rates of Animals ([2]; day 15): 100%
- Survival Rates of Animals ([2]; day 18): 100%
- Survival Rates of Animals ([2]; day 21): 100%
- protein levels of the mutant p53 [3]: No significant changes
- MDM2, p53 and p21 protein levels, oligo pre-treatment then 5-FU ([3]; 200 nM Oligo 24 hr, then 5-FU 24 hr): MDM2 expression was inhibited, and p21 slightly induced
- MDM2 and p21 protein levels, oligo pre-treatment then HCPT ([3]; 200 nM Oligo 24 hr, then HCPT 24 hr): MDM2 expression was inhibited, resulting in significant elevated p21 levels
- MDM2 and p21 protein levels, oligo pre-treatment then adriamycin ([3]; 200 nM Oligo 24 hr, then adriamycin 24 hr): MDM2 expression was inhibited, resulting in significant elevated p21 levels
- inhibitory effect on MDM2 expression ([3]; 200 nM, 24 hr): > 95%
- p21 levels ([3]; 100 nm or higher): elevated
- inhibitory effect on MDM2 expression ([3]; 500 and 1000 nM): approximately 80%
- Survival Rates of Animals ([4]; day 3): 100%
- Survival Rates of Animals ([4]; day 6): 100%
- Survival Rates of Animals ([4]; day 9): 100%
- Survival Rates of Animals ([4]; day 12): 100%
- Survival Rates of Animals ([4]; day 15): 100%
- Survival Rates of Animals ([4]; day 18): 100%
- MDM2, p53 and p21 protein levels, oligo pre-treatment then 5-FU ([5]; then 5-FU 24 hr): MDM2 expression was inhibited, resulting in significant elevated p53 and p21 levels
- MDM2, p53 and p21 protein levels, oligo pre-treatment then HCPT ([5]; then HCPT 24 hr): MDM2 expression was inhibited, resulting in significant elevated p53 and p21 levels
- MDM2, p53 and p21 protein levels, oligo pre-treatment then adriamycin ([5]; then adriamycin 24 hr): MDM2 expression was inhibited, resulting in significant elevated p53 and p21 levels
- IC50 (DLD-1 cells): 140 nM
- effect on tumor growth (SJSA xenografts): dose-dependent effect
